Measured values as given in PubChem BioAssay (NCI).
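Compound exposure: 48 hours, 5 concentrations, 96-well plates. The concentration for 50% growth inhibition is given as GI50. TGI: concentration producing complete growth inhibition.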

Experiments:
Experiment in all cases: inhibition of tumour cell growth, NCI panel, 48 h
[1] = tested on: OVCAR-5 ovarian
[2] = tested on: OVCAR-8 ovarian
[3] = tested on: NCI-H23 lung
[4] = tested on: UO-31 renal
[5] = tested on: U251 CNS
[6] = tested on: T-47D breast
[7] = tested on: SK-MEL-28 melanoma
[8] = tested on: NCI/ADR-RES ovarian
[9] = tested on: UACC-62 melanoma
[10] = tested on: HOP-92 NSCLC
[11] = tested on: COLO 205 colon
[12] = tested on: KM12 colon
[13] = tested on: SNB-75 CNS
[14] = tested on: NCI-H522 lung
[15] = tested on: CCRF-CEM leukemia
[16] = tested on: OVCAR-4 ovarian
[17] = tested on: M14 melanoma
[18] = tested on: MDA-MB-231 breast
[19] = tested on: A549 NSCLC
[20] = tested on: SF-268 CNS
[21] = tested on: SF-295 CNS
[22] = tested on: HCT-15 colon
[23] = tested on: RPMI-8226 leukemia
[24] = tested on: 786-0 renal
[25] = tested on: NCI-H460 lung
[26] = tested on: DU-145 prostate
[27] = tested on: ACHN renal
[28] = tested on: SNB-19 CNS
[29] = tested on: LOX IMVI melanoma
[30] = tested on: SN12C renal
[31] = tested on: SK-MEL-5 melanoma
[32] = tested on: NCI-H226 lung
[33] = tested on: HL-60(TB) leukemia
[34] = tested on: HT29 colon
[35] = tested on: SR leukemia
[36] = tested on: CAKI-1 renal
[37] = tested on: HOP-62 NSCLC
[38] = tested on: MDA-MB-435
[39] = tested on: K-562 leukemia
[40] = tested on: SK-MEL-2 melanoma
[41] = tested on: MOLT-4 leukemia
[42] = tested on: SW-620 colon
[43] = tested on: SK-OV-3 ovarian
[44] = tested on: OVCAR-3 ovarian
[45] = tested on: IGROV1 ovarian
[46] = tested on: TK-10 renal
[47] = tested on: PC-3 prostate
[48] = tested on: HCC-2998 colon
[49] = tested on: MCF7 breast

NC(=NC1CCCCCCC1)c1ccc(N2CCN(c3ccc(C(N)=NC4CCCCCCC4)cc3)CC2)cc1
GI50 [1]: 14.9 µM
TGI [1]: 39 µM
GI50 [2]: 4.9 µM
TGI [2]: 30 µM
GI50 [3]: 6.8 µM
TGI [3]: 45.8 µM
GI50 [4]: 48.3 µM
TGI [4]: > 100 µM
GI50 [5]: 2.96 µM
TGI [5]: 15.3 µM
GI50 [6]: 25.8 µM
TGI [6]: > 100 µM
GI50 [7]: 6.75 µM
TGI [7]: 22.8 µM
GI50 [8]: > 100 µM
TGI [8]: > 100 µM
GI50 [9]: 12.6 µM
TGI [9]: 28.3 µM
GI50 [10]: 25.1 µM
TGI [10]: 79.9 µM
GI50 [11]: 13.3 µM
TGI [11]: 39.3 µM
GI50 [12]: 5.3 µM
TGI [12]: 19.1 µM
GI50 [13]: 3.7 µM
TGI [13]: 15.7 µM
GI50 [14]: 12.8 µM
TGI [14]: 52.2 µM
GI50 [15]: 89.8 µM
TGI [15]: > 100 µM
GI50 [16]: 24.6 µM
TGI [16]: > 100 µM
GI50 [17]: 30.8 µM
TGI [17]: > 100 µM
GI50 [18]: 12.5 µM
TGI [18]: 30.6 µM
GI50 [19]: 4.25 µM
TGI [19]: > 100 µM
GI50 [20]: 16.7 µM
TGI [20]: 42.7 µM
GI50 [21]: 2.04 µM
TGI [21]: 6.09 µM
GI50 [22]: 31.8 µM
TGI [22]: > 100 µM
GI50 [23]: 25.8 µM
TGI [23]: > 100 µM
GI50 [24]: 18.9 µM
TGI [24]: > 100 µM
GI50 [25]: 11.9 µM
TGI [25]: > 100 µM
GI50 [26]: 1.94 µM
TGI [26]: 12.6 µM
GI50 [27]: 22.7 µM
TGI [27]: > 100 µM
GI50 [28]: 13.5 µM
TGI [28]: 27.6 µM
GI50 [29]: > 100 µM
TGI [29]: > 100 µM
GI50 [30]: 7.62 µM
TGI [30]: 69.3 µM
GI50 [31]: 1.72 µM
TGI [31]: 7.66 µM
GI50 [32]: 11.5 µM
TGI [32]: 39.1 µM
GI50 [33]: 16 µM
TGI [33]: > 100 µM
GI50 [34]: 4.88 µM
TGI [34]: 23.1 µM
GI50 [35]: 26.6 µM
TGI [35]: > 100 µM
GI50 [36]: 23.1 µM
TGI [36]: 63.1 µM
GI50 [37]: 14.4 µM
TGI [37]: 62.8 µM
GI50 [38]: 5.25 µM
TGI [38]: 17.9 µM
GI50 [39]: 35.4 µM
TGI [39]: > 100 µM
GI50 [40]: 12 µM
TGI [40]: > 100 µM
GI50 [41]: 47.8 µM
TGI [41]: > 100 µM
GI50 [42]: 8.91 µM
TGI [42]: 38.5 µM
GI50 [43]: 15.2 µM
TGI [43]: 34.9 µM
GI50 [44]: 1.73 µM
TGI [44]: 13.8 µM
GI50 [45]: 53.1 µM
TGI [45]: > 100 µM
GI50 [46]: 10.9 µM
TGI [46]: 34.2 µM
GI50 [47]: 22.6 µM
TGI [47]: 46.8 µM
GI50 [48]: 14.4 µM
TGI [48]: 48 µM
GI50 [49]: 5.77 µM
TGI [49]: > 100 µM
